Laboratory results reported in ChEMBL document CHEMBL1255561, “A new NF-κB inhibitor based on the amino-epoxyquinol core of DHMEQ” (Bioorg Med Chem Lett, 2010).
The source made the active and inactive calls. No cut-off for these calls is given here.

Experiments:
[1] = molecular target: Transcription factor p65 (Homo sapiens) (UniProt Q04206); experiment: Binding affinity to recombinant NF-kappaB transcription factor p65 subunit (1-325) at 4 equiv mol concentration after 1 hr by MALDI-TOF MS analysis
RAW264.7 [2] = experiment: Inhibition of LPS-induced NF-kappaB activation in mouse RAW264.7 cells at up to 30 ug/ml after 30 mins by electrophoretic mobility shift assay; format: cell-based
RAW264.7 [3] = experiment: Cytotoxicity in mouse RAW264.7 cells at 30 ug/ml after 24 hrs by MTT assay; format: cell-based; conditions: raw264.7, 24 h
RAW264.7 [4] = experiment: Inhibition of LPS-induced nitric oxide production in mouse RAW264.7 cells treated 1 hr before LPS challenge measured after 24 hrs by Griess reaction; format: functional, cell-based
RAW264.7 [5] = experiment: Inhibition of LPS-induced iNOS expression in mouse RAW264.7 cells at up to 30 ug/ml treated 1 hr before LPS challenge measured after 6 hrs by immunoblotting; format: functional, cell-based

Sequence of Transcription factor p65 (Homo sapiens) (Q04206 whole entry): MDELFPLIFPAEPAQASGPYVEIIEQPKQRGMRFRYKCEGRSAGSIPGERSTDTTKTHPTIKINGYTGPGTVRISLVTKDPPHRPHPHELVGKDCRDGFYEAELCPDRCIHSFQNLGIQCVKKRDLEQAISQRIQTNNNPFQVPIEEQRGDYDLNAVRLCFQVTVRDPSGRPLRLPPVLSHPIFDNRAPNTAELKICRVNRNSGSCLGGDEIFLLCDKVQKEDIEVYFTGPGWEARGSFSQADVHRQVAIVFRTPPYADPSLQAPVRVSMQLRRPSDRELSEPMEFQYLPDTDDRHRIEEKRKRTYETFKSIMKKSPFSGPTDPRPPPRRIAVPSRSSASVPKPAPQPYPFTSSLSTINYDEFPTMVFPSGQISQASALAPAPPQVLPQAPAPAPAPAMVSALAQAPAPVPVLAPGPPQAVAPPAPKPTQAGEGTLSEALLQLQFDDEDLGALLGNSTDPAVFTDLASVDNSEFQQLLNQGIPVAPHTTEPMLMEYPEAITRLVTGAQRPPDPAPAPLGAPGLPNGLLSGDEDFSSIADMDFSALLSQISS

Row | SMILES | Activity [1] | inhibition (RAW264.7 [2]) | Activity (RAW264.7 [3]) | inhibition (RAW264.7 [4]) | inhibition (RAW264.7 [5])
1 | C=CCOC(=O)NC1=CC(=O)[C@H]2O[C@H]2[C@@H]1O (relative stereo) | inactive | Active | Toxic | Dose-dependent effect | Active
2 | C=CCOC(=O)NC1=CC(=O)[C@H]2O[C@H]2[C@H]1O (relative stereo) | Active | – | – | – | Active
